Values of other authors as cited in publication PMC6862717 (ACS chemical neuroscience, 2018).

How the values were obtained:
[1] = test system: transgenic animal model of AD
[2] = test system: animal model of neuropathic pain

Compound	efficacy in a transgenic animal model of AD [1]	neuroprotective properties in nematodes (nematodes)	cognitive performance in wild-type mice (wild-type mice)	mechanical hypersensitivity [2]
CN1CCN(c2ccc3c(c2)[C@H]2C[C@@H]3CCN2C(=O)OCc2ccccc2)CC1 (racemic) [SAS-0132]	efficacious	shows neuroprotective properties	improves cognitive performance	–
UKH-1114	–	–	–	relieves mechanical hypersensitivity
